Assay results as given in PMC8955020, “Pharmacokinetics of Nafamostat, a Potent Serine Protease Inhibitor, by a Novel LC-MS/MS Analysis” (Molecules, 2022).
Read-outs that look alike come from different tables or passages of the source.

Legend:
[1] = Effect of pH on stability of nafamostat in plasma under different storage conditions; type: in vitro ADME, rat; conditions: 160 ng/mL in plasma
Description: Nafamostat in the biological fluid is highly unstable because it is rapidly hydrolyzed by erythrocytes in the blood, as well as by arylesterase in the plasma. Quick plasma preparation is one of the general stabilization strategies for unstable compounds in the biological matrices. Therefore, to prevent the hydrolysis of nafamostat by erythrocytes after acquiring the blood samples, the centrifugation time of the blood samples was shortened from 10 to 5 min. In addition, the stability of nafamostat was examined by modulating the pH of plasma samples to determine the optimal pH to minimize the enzymatic hydrolysis. […] Nafamostat concentrations were also determined under various storage conditions, i.e., (A) immediately, (B) after 24 h left at room temperature, (C) after being subjected to five freeze–thaw cycles, and (D) after 10 days at −20 °C. […] Accordingly, once plasma samples were collected, 3 µL of 5.5 mol/L HCl was added to 150 µL of the collected plasma samples to keep the plasma samples in 0.35% HCl (pH = 1.2).

[2] = Stability of nafamostat in rat plasma (autosampler, freeze/thaw, short-term, long-term); type: in vitro ADME; conditions: for Percentage over Theoretical Concentration, Long-Term Stability: 2 weeks; for Percentage over Theoretical Concentration, Freeze/Thaw Stability: 5 cycles; for Percentage over Theoretical Concentration, Autosampler Stability / Percentage over Theoretical Concentration, Short-Term Stability: 24 h; for Percentage over Theoretical Concentration, Autosampler Stability: 4 °C; for Percentage over Theoretical Concentration, Short-Term Stability: 20 °C
Description: The stability of the nafamostat in the rat plasma was determined under four different storage conditions. […] The stability of nafamostat and IS was examined under four different conditions using three replicates of low, medium, and high QC samples in the rat plasma. The autosampler stability was determined by analyzing the QC samples left in the autosampler at 4 °C for 24 h. The freeze–thaw stability was determined by analyzing the QC samples subject to five freeze–thaw cycles. The short-term stability was determined by analyzing the QC samples left at room temperature for 24 h. […] All stability data were expressed as the percentage of the mean response of the QC samples for stability tests vs. those of the freshly prepared samples at the same concentrations.

[3] = parameters: method as in PMID 18392693; conditions: humans; cited from earlier work
[4] = Pharmacokinetics of nafamostat in rats after intravenous injection and oral administration (LC-MS/MS, non-compartmental); type: in vivo; conditions: rat
Description: Therefore, nafamostat dissolved in 5% DMSO was administered by intravenous injection via penile vein at a dose of 2 mg/kg (n = 5). For oral administration, nafamostat was dissolved in two types of vehicles: (1) 10% DMSO, (2) 10% DMSO with 10% Tween 80, and orally administered at a dose of 20 mg/kg (n = 5). […] The animal study was approved by the Ethics Committee for the Treatment of Laboratory Animals at Sungkyunkwan University (SKKUIACUC2021-01-57-1) and conducted in accordance with the standard operating procedures (SOPs). Male Sprague–Dawley rats (7 weeks, 188–204 g; DBL, Eumseong, Korea) were kept in plastic cages with free access to a standard diet (Cargill Agri Purina, Seongnam, Korea) and water. The animals were maintained at a temperature of 23 ± 2 °C with a 12 h light–dark cycle and relative humidity of 50 ± 10%. Nafamostat dissolved in 5% DMSO (1 mg/mL) was administered by intravenous injection via penile vein at a dose of 2 mg/kg (n = 5). Approximately 0.3 mL of the venous blood samples were collected at 5, 10, 15, 30 min, 1, 1.5, 2, 3, 4, 6, 8, and 12 h after drug administration directly from the jugular vein. For oral administration, nafamostat was dissolved in two types of vehicle: (1) 10% DMSO, (2) 10% DMSO with 10% Tween 80. The prepared nafamostat solution in Vehicle 1 or Vehicle 2 was orally administered at a dose of 20 mg/kg (n = 5). Approximately 0.3 mL of the venous blood samples were collected at 15, 30, 45 min, 1, 1.5, 2, 3, 4, 6, 8, and 12 h after drug administration directly from the jugular vein. Plasma samples were obtained by centrifugation of the blood samples at 15,000× g for 5 min. Finally, 150 μL of the plasma samples were mixed with 3 μL of the 5.5 mol/L HCl and stored at −20 °C until analysis. The plasma nafamostat concentration–time data were analyzed by a non-compartmental method using the nonlinear least-squares regression program, Phoenix WinNonlin (Version 6.4, Certara, L.P., Princeton, NJ, USA).

[5] = male, Sprague-Dawley, plasma, iv, 2 mg/kg, IV injection 2 mg/kg in 5% DMSO
[6] = male, Sprague-Dawley, plasma, po, 20 mg/kg, oral 20 mg/kg, vehicle 1: 10% DMSO
[7] = male, Sprague-Dawley, plasma, po, 20 mg/kg, oral 20 mg/kg, vehicle 2: 10% DMSO + 10% Tween 80
[8] = IV injection 2 mg/kg in 5% DMSO

stability (observed vs theoretical concentration) ([1]; 0.1% ammonium hydroxide (pH = 10.5), A: immediately): 29.29 ± 1.26% | stability (observed vs theoretical concentration) ([1]; 0.1% ammonium hydroxide (pH = 10.5), B: after 24 h at room temperature): 0.09 ± 0.01% | stability (observed vs theoretical concentration) ([1]; 0.1% ammonium hydroxide (pH = 10.5), C: after 5 freeze-thaw cycles): 5.21 ± 0.32% | stability (observed vs theoretical concentration) ([1]; 0.1% ammonium hydroxide (pH = 10.5), D: after 10 days at −20 °C): 0.13 ± 0.08% | stability (observed vs theoretical concentration) ([1]; 0.1% formic acid (pH = 2.8), A: immediately): 66.56 ± 3.73% | stability (observed vs theoretical concentration) ([1]; 0.1% formic acid (pH = 2.8), B: after 24 h at room temperature): 0.16 ± 0.05% | stability (observed vs theoretical concentration) ([1]; 0.1% formic acid (pH = 2.8), C: after 5 freeze-thaw cycles): 48.25 ± 2.26% | stability (observed vs theoretical concentration) ([1]; 0.1% formic acid (pH = 2.8), D: after 10 days at −20 °C): 0.12 ± 0.07% | stability (observed vs theoretical concentration) ([1]; 0.35% HCl (pH = 1.2), A: immediately): 103.67 ± 0.60% | stability (observed vs theoretical concentration) ([1]; 0.35% HCl (pH = 1.2), B: after 24 h at room temperature): 104.42 ± 2.50% | stability (observed vs theoretical concentration) ([1]; 0.35% HCl (pH = 1.2), C: after 5 freeze-thaw cycles): 103.12 ± 2.19% | stability (observed vs theoretical concentration) ([1]; 0.35% HCl (pH = 1.2), D: after 10 days at −20 °C): 107.15 ± 0.69% | stability (observed vs theoretical concentration) ([1]; 1.0% formic acid (pH = 2.2), A: immediately): 97.66 ± 6.58% | stability (observed vs theoretical concentration) ([1]; 1.0% formic acid (pH = 2.2), B: after 24 h at room temperature): 100.05 ± 1.83% | stability (observed vs theoretical concentration) ([1]; 1.0% formic acid (pH = 2.2), C: after 5 freeze-thaw cycles): 101.86 ± 1.51% | stability (observed vs theoretical concentration) ([1]; 1.0% formic acid (pH = 2.2), D: after 10 days at −20 °C): 105.67 ± 0.59% | stability (observed vs theoretical concentration) ([1]; saline (pH = 5.5), A: immediately): 63.47 ± 2.32% | stability (observed vs theoretical concentration) ([1]; saline (pH = 5.5), B: after 24 h at room temperature): 0.13 ± 0.03% | stability (observed vs theoretical concentration) ([1]; saline (pH = 5.5), C: after 5 freeze-thaw cycles): 19.01 ± 1.61% | stability (observed vs theoretical concentration) ([1]; saline (pH = 5.5), D: after 10 days at −20 °C): 9.93 ± 1.76% | Percentage over Theoretical Concentration, Long-Term Stability ([2]; 2 ng/mL): 97.25 ± 4.73% | Percentage over Theoretical Concentration, Freeze/Thaw Stability ([2]; 2 ng/mL): 99.02 ± 3.61% | Percentage over Theoretical Concentration, Autosampler Stability ([2]; 2 ng/mL): 97.2 ± 4.98% | Percentage over Theoretical Concentration, Short-Term Stability ([2]; 2 ng/mL): 96.57 ± 2.66% | Percentage over Theoretical Concentration, Long-Term Stability ([2]; 80 ng/mL): 99.38 ± 0.49% | Percentage over Theoretical Concentration, Freeze/Thaw Stability ([2]; 80 ng/mL): 100.40 ± 0.20% | Percentage over Theoretical Concentration, Autosampler Stability ([2]; 80 ng/mL): 101.31 ± 2.00% | Percentage over Theoretical Concentration, Short-Term Stability ([2]; 80 ng/mL): 101.11 ± 1.95% | Percentage over Theoretical Concentration, Long-Term Stability ([2]; 160 ng/mL): 96.62 ± 1.63% | Percentage over Theoretical Concentration, Freeze/Thaw Stability ([2]; 160 ng/mL): 98.44 ± 0.58% | Percentage over Theoretical Concentration, Autosampler Stability ([2]; 160 ng/mL): 97.45 ± 0.31% | Percentage over Theoretical Concentration, Short-Term Stability ([2]; 160 ng/mL): 97.64 ± 2.18% | Vd ([4]; male, Sprague-Dawley, plasma, IV injection 2 mg/kg in 5% DMSO, read-out: Vss): 0.99 ± 0.65 L/kg | CL/F ([4]; male, Sprague-Dawley, plasma, oral 20 mg/kg, vehicle 2: 10% DMSO + 10% Tween 80, read-out: CL or CL/F): 319 ± 119 L/h/kg | AUC(0-inf) [4, 5]: 447 ± 35.9 ng·h/mL | half-life [4, 5]: 1.39 h | Cmax ([4]; male, Sprague-Dawley, plasma, iv, 2 mg/kg, IV injection 2 mg/kg in 5% DMSO, plasma, read-out: C0 or Cmax): 5290 ± 808 ng/mL | AUC(0-inf) [4, 6]: 42.4 ± 12.5 ng·h/mL | Tmax [4, 6]: 0.45 ± 0.21 h | bioavailability [4, 6]: 0.95 ± 0.25% | half-life [4, 6]: 2.21 ± 1.3 h | Cmax ([4]; male, Sprague-Dawley, plasma, po, 20 mg/kg, oral 20 mg/kg, vehicle 1: 10% DMSO, read-out: C0 or Cmax): 27.8 ± 8.17 ng/mL | AUC(0-inf) [4, 7]: 71.2 ± 29.9 ng·h/mL | Tmax [4, 7]: 1 ± 0.53 h | bioavailability [4, 7]: 1.59 ± 0.6% | half-life [4, 7]: 2.3 ± 1.11 h | Cmax ([4]; male, Sprague-Dawley, plasma, po, 20 mg/kg, oral 20 mg/kg, vehicle 2: 10% DMSO + 10% Tween 80, read-out: C0 or Cmax): 33.2 ± 18.8 ng/mL | CL or CL/F [4, 8]: 4.495 ± 0.367 L/h/kg | Vz or Vz/F [4, 8]: 8.75 ± 3.80 L/kg | t1/2 ([4]; IV injection 2 mg/kg in 5% DMSO, plasma, 2 mg/kg): 1.34 ± 0.51 h | Vz or Vz/F ([4]; oral 20 mg/kg, vehicle 1: 10% DMSO): 1906.08 ± 1841.14 L/kg | Vz or Vz/F ([4]; oral 20 mg/kg, vehicle 2: 10% DMSO + 10% Tween 80): 998.85 ± 401.04 L/kg | time to reach peak concentration (Cmax) ([4]; oral administration 20 mg/kg, both vehicles): ≤ 1.0 h
Compound: N=C(N)c1ccc2cc(OC(=O)c3ccc(N=C(N)N)cc3)ccc2c1 [nafamostat, 6′-amidino-2-naphthyl 4-guanidinobenzoate]
t1/2(β) [3]: 1.87 to 2.13 h
